Data as given in ChEMBL document CHEMBL3045463, “Cross-resistance study and biochemical mechanisms of thiamethoxam resistance in B-biotype Bemisia tabaci (Hemiptera: Aleyrodidae)” (2010).
Converted amounts (≈) assume the structure as drawn.

Columns and labels:
Assay type in all cases: functional
Bemisia tabaci [1] = experiment: Cross resistant, ratio of LC50 for B-biotype thiamethoxam-resistant Bemisia tabaci (sweet potato whitefly) to LC50 for B-biotype thiamethoxam-sensitive Bemisia tabaci (sweet potato whitefly)
Bemisia tabaci [2] = experiment: Insecticidal activity against B-biotype thiamethoxam-sensitive Bemisia tabaci (sweet potato whitefly) in cabbage leaf assessed as mortality after 48 hr by leaf disk assay; conditions: foliar
Bemisia tabaci [3] = experiment: Insecticidal activity against B-biotype thiamethoxam-resistant Bemisia tabaci (sweet potato whitefly) in cabbage leaf assessed as mortality after 48 hr by leaf disk assay; conditions: foliar
Bemisia tabaci [4] = experiment: Insecticidal activity against B-biotype thiamethoxam-sensitive Bemisia tabaci (sweet potato whitefly) in cabbage leaf assessed as mortality after 48 hr by leaf disk assay in presence of triphenyl phosphate; conditions: foliar
Bemisia tabaci [5] = experiment: Synergism ratio, Ratio of LC50 for B-biotype thiamethoxam-resistant Bemisia tabaci (sweet potato whitefly) to LC50 for B-biotype thiamethoxam-resistant Bemisia tabaci (sweet potato whitefly) in presence of diethylmaleate
Bemisia tabaci [6] = experiment: Insecticidal activity against T28 generation of B-biotype Bemisia tabaci (sweet potato whitefly) in cabbage leaf assessed as mortality after 48 hr by leaf disk assay; conditions: foliar
Bemisia tabaci [7] = experiment: Synergism ratio, Ratio of LC50 for B-biotype thiamethoxam-resistant Bemisia tabaci (sweet potato whitefly) to LC50 for B-biotype thiamethoxam-resistant Bemisia tabaci (sweet potato whitefly) in presence of triphenyl phosphate
Bemisia tabaci [8] = experiment: Synergism ratio, Ratio of LC50 for B-biotype thiamethoxam-sensitive Bemisia tabaci (sweet potato whitefly) to LC50 for B-biotype thiamethoxam-sensitive Bemisia tabaci (sweet potato whitefly) in presence of triphenyl phosphate
Bemisia tabaci [9] = experiment: Insecticidal activity against B-biotype thiamethoxam-resistant Bemisia tabaci (sweet potato whitefly) in cabbage leaf assessed as mortality after 48 hr by leaf disk assay in presence of triphenyl phosphate; conditions: foliar
Bemisia tabaci [10] = experiment: Insecticidal activity against B-biotype Bemisia tabaci (sweet potato whitefly) in cabbage leaf assessed as mortality after 48 hr by leaf disk assay; conditions: foliar
Bemisia tabaci [11] = experiment: Resistant ratio, ratio of LC50 for T28 generation of B-biotype Bemisia tabaci (sweet potato whitefly) to LC50 for B-biotype Bemisia tabaci (sweet potato whitefly)
Bemisia tabaci [12] = experiment: Synergism ratio, Ratio of LC50 for B-biotype thiamethoxam-sensitive Bemisia tabaci (sweet potato whitefly) to LC50 for B-biotype thiamethoxam-sensitive Bemisia tabaci (sweet potato whitefly) in presence of piperonyl butoxide
Bemisia tabaci [13] = experiment: Synergism ratio, Ratio of LC50 for B-biotype thiamethoxam-sensitive Bemisia tabaci (sweet potato whitefly) to LC50 for B-biotype thiamethoxam-sensitive Bemisia tabaci (sweet potato whitefly) in presence of diethylmaleate
Bemisia tabaci [14] = experiment: Insecticidal activity against B-biotype thiamethoxam-sensitive Bemisia tabaci (sweet potato whitefly) in cabbage leaf assessed as mortality after 48 hr by leaf disk assay in presence of piperonyl butoxide; conditions: foliar
Bemisia tabaci [15] = experiment: Insecticidal activity against B-biotype thiamethoxam-sensitive Bemisia tabaci (sweet potato whitefly) in cabbage leaf assessed as mortality after 48 hr by leaf disk assay in presence of diethylmaleate; conditions: foliar
Bemisia tabaci [16] = experiment: Resistant ratio, ratio of LC50 for T33 generation of B-biotype Bemisia tabaci (sweet potato whitefly) to LC50 for B-biotype Bemisia tabaci (sweet potato whitefly)
Bemisia tabaci [17] = experiment: Insecticidal activity against B-biotype thiamethoxam-resistant Bemisia tabaci (sweet potato whitefly) in cabbage leaf assessed as mortality after 48 hr by leaf disk assay in presence of piperonyl butoxide; conditions: foliar
Bemisia tabaci [18] = experiment: Resistant ratio, ratio of LC50 for T17 generation of B-biotype Bemisia tabaci (sweet potato whitefly) to LC50 for B-biotype Bemisia tabaci (sweet potato whitefly)
Bemisia tabaci [19] = experiment: Insecticidal activity against B-biotype thiamethoxam-resistant Bemisia tabaci (sweet potato whitefly) in cabbage leaf assessed as mortality after 48 hr by leaf disk assay in presence of diethylmaleate; conditions: foliar
Bemisia tabaci [20] = experiment: Resistant ratio, ratio of LC50 for T30 generation of B-biotype Bemisia tabaci (sweet potato whitefly) to LC50 for B-biotype Bemisia tabaci (sweet potato whitefly)
Bemisia tabaci [21] = experiment: Insecticidal activity against T17 generation of B-biotype Bemisia tabaci (sweet potato whitefly) in cabbage leaf assessed as mortality after 48 hr by leaf disk assay; conditions: foliar
Bemisia tabaci [22] = experiment: Synergism ratio, Ratio of LC50 for B-biotype thiamethoxam-resistant Bemisia tabaci (sweet potato whitefly) to LC50 for B-biotype thiamethoxam-resistant Bemisia tabaci (sweet potato whitefly) in presence of piperonyl butoxide
Bemisia tabaci [23] = experiment: Insecticidal activity against T30 generation of B-biotype Bemisia tabaci (sweet potato whitefly) in cabbage leaf assessed as mortality after 48 hr by leaf disk assay; conditions: foliar
Bemisia tabaci [24] = experiment: Insecticidal activity against T33 generation of B-biotype Bemisia tabaci (sweet potato whitefly) in cabbage leaf assessed as mortality after 48 hr by leaf disk assay; conditions: foliar

**Q.** What does the source list for `CC[C@H](C)[C@H]1O[C@]2(C=C[C@@H]1C)C[C@@H]1C[C@@H](C/C=C(\C)[C@@H](O[C@H]3C[C@H](OC)[C@@H](O[C@H]4C[C@H](OC)[C@@H](O)[C@H](C)O4)[C@H](C)O3)[C@@H](C)/C=C/C=C3\CO[C@@H]4[C@H](O)C(C)=C[C@@H](C(=O)O1)[C@]34O)O2.CO[C@H]1C[C@H](O[C@H]2[C@H](C)O[C@@H](O[C@@H]3/C(C)=C/C[C@@H]4C[C@@H](C[C@]5(C=C[C@H](C)[C@@H](C(C)C)O5)O4)OC(=O)[C@@H]4C=C(C)[C@@H](O)[C@H]5OC/C(=C\C=C\[C@@H]3C)[C@]54O)C[C@@H]2OC)O[C@@H](C)[C@@H]1O` [ABAMECTIN]?
**A.** RatioLC50 (Bemisia tabaci [1]): 5.33; LC50 (Bemisia tabaci [2]): 0.12 µg/mL; LC50 (Bemisia tabaci [3]): 0.64 µg/mL

**Q.** Which RatioLC50 (Bemisia tabaci [1]) does the source give for `C/C(=N\C#N)N(C)Cc1ccc(Cl)nc1` [ACETAMIPRID] here?
**A.** 35.8

**Q.** What about the LC50 (Bemisia tabaci [2]) of the same compound?
**A.** 1.98 µg/mL (≈ 8.89 µM)

**Q.** What about the LC50 (Bemisia tabaci [3]) of the same compound?
**A.** 70.9 µg/mL (≈ 318 µM)

**Q.** How did the RatioLC50 (Bemisia tabaci [1]) turn out when `CCCCN(CCCC)SN(C)C(=O)Oc1cccc2c1OC(C)(C)C2` [CARBOSULFAN] was run?
**A.** 4.43

**Q.** And the LC50 (Bemisia tabaci [2])?
**A.** 441 µg/mL (≈ 1160 µM)

**Q.** And the LC50 (Bemisia tabaci [3])?
**A.** 1960 µg/mL (≈ 5140 µM)

**Q.** With `CCOP(=S)(OCC)Oc1nc(Cl)c(Cl)cc1Cl` [CHLORPYRIFOS] as the compound, how does the RatioLC50 (Bemisia tabaci [1]) read?
**A.** 1.03

**Q.** What about the LC50 (Bemisia tabaci [2]) of the same compound?
**A.** 601 µg/mL (≈ 1710 µM)

**Q.** And the LC50 (Bemisia tabaci [3])?
**A.** 621 µg/mL (≈ 1770 µM)

**Q.** With `CC1(C)[C@H](C(=O)O[C@H](C#N)c2cccc(Oc3ccccc3)c2)[C@@H]1C=C(Br)Br` [DELTAMETHRIN] as the compound, how does the RatioLC50 (Bemisia tabaci [1]) read?
**A.** 1.16

**Q.** What about the LC50 (Bemisia tabaci [2]) of the same compound?
**A.** 701 µg/mL (≈ 1390 µM)

**Q.** What about the LC50 (Bemisia tabaci [3]) of the same compound?
**A.** 810 µg/mL (≈ 1600 µM)

**Q.** Which RatioLC50 (Bemisia tabaci [1]) does the source give for `N#Cc1nn(-c2c(Cl)cc(C(F)(F)F)cc2Cl)c(N)c1[S+]([O-])C(F)(F)F` (stereo not drawn) [FIPRONIL] here?
**A.** 1.08

**Q.** What about the LC50 (Bemisia tabaci [2]) of the same compound?
**A.** 4.11 µg/mL (≈ 9.4 µM)

**Q.** And the LC50 (Bemisia tabaci [3])?
**A.** 4.45 µg/mL (≈ 10.2 µM)

**Q.** For `O=[N+]([O-])/N=C1\NCCN1Cc1ccc(Cl)nc1` [IMIDACLOPRID], which RatioLC50 (Bemisia tabaci [1]) is on record?
**A.** 47.3

**Q.** What about the LC50 (Bemisia tabaci [2]) of the same compound?
**A.** 8.72 µg/mL (≈ 34.1 µM)

**Q.** What about the LC50 (Bemisia tabaci [3]) of the same compound?
**A.** 412 µg/mL (≈ 1610 µM)

**Q.** `CCN(Cc1ccc(Cl)nc1)/C(=C/[N+](=O)[O-])NC` [NITENPYRAM] was tested. Which RatioLC50 (Bemisia tabaci [1]) did it give?
**A.** 9.99

**Q.** What about the LC50 (Bemisia tabaci [2]) of the same compound?
**A.** 2.22 µg/mL (≈ 8.2 µM)

**Q.** What about the LC50 (Bemisia tabaci [3]) of the same compound?
**A.** 22.2 µg/mL (≈ 82 µM)

**Q.** What does the source list for `CN1COCN(Cc2cnc(Cl)s2)/C1=N\[N+](=O)[O-]` [THIAMETHOXAM]?
**A.** LC50 (Bemisia tabaci [4]): 17.6 µg/mL; RatioLC50 (Bemisia tabaci [1]): 25.6; RatioLC50 (Bemisia tabaci [5]): 0.99; LC50 (Bemisia tabaci [6]): 334 µg/mL (≈ 1140 µM); RatioLC50 (Bemisia tabaci [7]): 2.37; RatioLC50 (Bemisia tabaci [8]): 1; LC50 (Bemisia tabaci [9]): 189 µg/mL; LC50 (Bemisia tabaci [10]): 17.6 µg/mL (≈ 60.3 µM); RatioLC50 (Bemisia tabaci [11]): 19; RatioLC50 (Bemisia tabaci [12]): 1.17; RatioLC50 (Bemisia tabaci [13]): 0.95; LC50 (Bemisia tabaci [14]): 15 µg/mL; LC50 (Bemisia tabaci [15]): 18.5 µg/mL; RatioLC50 (Bemisia tabaci [16]): 66.3; LC50 (Bemisia tabaci [17]): 143 µg/mL; RatioLC50 (Bemisia tabaci [18]): 9.62; LC50 (Bemisia tabaci [19]): 452 µg/mL; RatioLC50 (Bemisia tabaci [20]): 25.6; LC50 (Bemisia tabaci [21]): 169 µg/mL (≈ 579 µM); RatioLC50 (Bemisia tabaci [22]): 3.14; LC50 (Bemisia tabaci [23]): 451 µg/mL (≈ 1550 µM); LC50 (Bemisia tabaci [24]): 1160 µg/mL (≈ 3990 µM); LC50 (Bemisia tabaci [2]): 17.6 µg/mL (≈ 60.3 µM); LC50 (Bemisia tabaci [3]): 450 µg/mL (≈ 1540 µM)
